Measured values from PubChem BioAssay (NCI).
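Cultured in 96-well plates, cells were exposed to test compound for 48 hours across five concentrations. TGI marks complete inhibition of growth.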

System: SK-MEL-2 melanoma
Assay: inhibition of tumour cell growth, NCI panel, 48 h

COc1cc2c(cc1O)[C@H](C)C(c1ccc(OC)c(OC)c1)O2 (stereo partly drawn) and CC1=C/C(=N\NC(N)=S)C(C(O)(C(F)(F)F)C(F)(F)F)C(C)(C)C1 (stereo not drawn) cannot be ordered by TGI: 12.8 µM for the first, > 10 µM for the second.

System: SK-MEL-28 melanoma
Assay: inhibition of tumour cell growth, NCI panel, 48 h

First: O=S1C(=c2ccc(=C3Sc4ccccc4S3)cc2)Sc2ccccc21 (stereo not drawn)
Second: N#CC(C(=O)CCC(=O)Nc1ccc(Cl)c(Cl)c1)c1ccccc1 (stereo not drawn)
The TGI of the first is lower: 7 µM for the first, > 100 µM for the second.

O=c1c2cccnc2ncn1CCN1CCCCC1 and O=C(Nc1c(O)[nH]c(=S)[nH]c1=O)c1ccccc1 cannot be ordered by TGI: > 100 µM for the first, > 100 µM for the second.

First: COc1ccc(C2c3cc4c(cc3OC3(OC)COC(=O)C23)OCO4)c(OC)c1 (stereo not drawn)
Second: COc1cc2c(cc1O)[C@H](C)C(c1ccc(OC)c(OC)c1)O2 (stereo partly drawn)
The TGI of the first is higher: > 100 µM for the first, 23 µM for the second.

For CC1=C/C(=N\NC(N)=S)C(C(O)(C(F)(F)F)C(F)(F)F)C(C)(C)C1 (stereo not drawn), the TGI was > 10 µM.

System: SK-MEL-5 melanoma
Assay: inhibition of tumour cell growth, NCI panel, 48 h

Going from O=S1C(=c2ccc(=C3Sc4ccccc4S3)cc2)Sc2ccccc21 (stereo not drawn) to N#CC(C(=O)CCC(=O)Nc1ccc(Cl)c(Cl)c1)c1ccccc1 (stereo not drawn), the TGI rises from 33.3 µM to > 100 µM.

O=c1c2cccnc2ncn1CCN1CCCCC1 and O=C(Nc1c(O)[nH]c(=S)[nH]c1=O)c1ccccc1 cannot be ordered by TGI: > 100 µM for the first, > 100 µM for the second.

Going from COc1ccc(C2c3cc4c(cc3OC3(OC)COC(=O)C23)OCO4)c(OC)c1 (stereo not drawn) to COc1cc2c(cc1O)[C@H](C)C(c1ccc(OC)c(OC)c1)O2 (stereo partly drawn), the TGI falls from > 90.1 µM to 20.8 µM.

For CC1=C/C(=N\NC(N)=S)C(C(O)(C(F)(F)F)C(F)(F)F)C(C)(C)C1 (stereo not drawn), the TGI was > 10 µM.

System: SK-OV-3 ovarian
Assay: inhibition of tumour cell growth, NCI panel, 48 h

First: O=S1C(=c2ccc(=C3Sc4ccccc4S3)cc2)Sc2ccccc21 (stereo not drawn)
Second: O=C(Nc1c(O)[nH]c(=S)[nH]c1=O)c1ccccc1
The TGI of the first is lower: 37 µM for the first, > 100 µM for the second.

O=c1c2cccnc2ncn1CCN1CCCCC1 and COc1ccc(C2c3cc4c(cc3OC3(OC)COC(=O)C23)OCO4)c(OC)c1 (stereo not drawn) cannot be ordered by TGI: > 100 µM for the first, > 86 µM for the second.

COc1cc2c(cc1O)[C@H](C)C(c1ccc(OC)c(OC)c1)O2 (stereo partly drawn) and CC1=C/C(=N\NC(N)=S)C(C(O)(C(F)(F)F)C(F)(F)F)C(C)(C)C1 (stereo not drawn) cannot be ordered by TGI: > 100 µM for the first, > 10 µM for the second.

System: SN12C renal
Assay: inhibition of tumour cell growth, NCI panel, 48 h

Going from O=S1C(=c2ccc(=C3Sc4ccccc4S3)cc2)Sc2ccccc21 (stereo not drawn) to N#CC(C(=O)CCC(=O)Nc1ccc(Cl)c(Cl)c1)c1ccccc1 (stereo not drawn), the TGI rises from 29.3 µM to > 100 µM.

O=c1c2cccnc2ncn1CCN1CCCCC1 and O=C(Nc1c(O)[nH]c(=S)[nH]c1=O)c1ccccc1 cannot be ordered by TGI: > 100 µM for the first, > 100 µM for the second.

COc1ccc(C2c3cc4c(cc3OC3(OC)COC(=O)C23)OCO4)c(OC)c1 (stereo not drawn) and CC1=C/C(=N\NC(N)=S)C(C(O)(C(F)(F)F)C(F)(F)F)C(C)(C)C1 (stereo not drawn) cannot be ordered by TGI: > 100 µM for the first, > 10 µM for the second.

System: SNB-19 CNS
Assay: inhibition of tumour cell growth, NCI panel, 48 h

First: O=S1C(=c2ccc(=C3Sc4ccccc4S3)cc2)Sc2ccccc21 (stereo not drawn)
Second: N#CC(C(=O)CCC(=O)Nc1ccc(Cl)c(Cl)c1)c1ccccc1 (stereo not drawn)
The TGI of the first is lower: 30.7 µM for the first, > 100 µM for the second.

O=c1c2cccnc2ncn1CCN1CCCCC1 and O=C(Nc1c(O)[nH]c(=S)[nH]c1=O)c1ccccc1 cannot be ordered by TGI: > 100 µM for the first, > 100 µM for the second.

First: COc1ccc(C2c3cc4c(cc3OC3(OC)COC(=O)C23)OCO4)c(OC)c1 (stereo not drawn)
Second: COc1cc2c(cc1O)[C@H](C)C(c1ccc(OC)c(OC)c1)O2 (stereo partly drawn)
The TGI of the first is higher: > 100 µM for the first, 65.3 µM for the second.

CC1=C/C(=N\NC(N)=S)C(C(O)(C(F)(F)F)C(F)(F)F)C(C)(C)C1 (stereo not drawn) was tested, and the TGI was > 10 µM.

System: SNB-75 CNS
Assay: inhibition of tumour cell growth, NCI panel, 48 h

Compared with O=S1C(=c2ccc(=C3Sc4ccccc4S3)cc2)Sc2ccccc21 (stereo not drawn), N#CC(C(=O)CCC(=O)Nc1ccc(Cl)c(Cl)c1)c1ccccc1 (stereo not drawn) is higher in TGI: 35.8 µM for the first, > 100 µM for the second.

O=c1c2cccnc2ncn1CCN1CCCCC1 and O=C(Nc1c(O)[nH]c(=S)[nH]c1=O)c1ccccc1 cannot be ordered by TGI: > 100 µM for the first, > 100 µM for the second.

Compared with COc1ccc(C2c3cc4c(cc3OC3(OC)COC(=O)C23)OCO4)c(OC)c1 (stereo not drawn), COc1cc2c(cc1O)[C@H](C)C(c1ccc(OC)c(OC)c1)O2 (stereo partly drawn) is 3.9-fold lower in TGI: 45.5 µM for the first, 11.7 µM for the second.

CC1=C/C(=N\NC(N)=S)C(C(O)(C(F)(F)F)C(F)(F)F)C(C)(C)C1 (stereo not drawn) was tested, and the TGI was > 10 µM.

System: SNB-78 CNS
Assay: inhibition of tumour cell growth, NCI panel, 48 h

O=S1C(=c2ccc(=C3Sc4ccccc4S3)cc2)Sc2ccccc21 (stereo not drawn) and N#CC(C(=O)CCC(=O)Nc1ccc(Cl)c(Cl)c1)c1ccccc1 (stereo not drawn) cannot be ordered by TGI: > 100 µM for the first, > 100 µM for the second.

O=c1c2cccnc2ncn1CCN1CCCCC1 and O=C(Nc1c(O)[nH]c(=S)[nH]c1=O)c1ccccc1 cannot be ordered by TGI: > 100 µM for the first, > 100 µM for the second.

Molecule COc1cc2c(cc1O)[C@H](C)C(c1ccc(OC)c(OC)c1)O2 (stereo partly drawn) has a TGI of 64.7 µM.

System: SR leukemia
Assay: inhibition of tumour cell growth, NCI panel, 48 h

For O=S1C(=c2ccc(=C3Sc4ccccc4S3)cc2)Sc2ccccc21 (stereo not drawn), the TGI was > 100 µM.
